Laboratory results published in PubChem BioAssay (NCI).
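Protocol summary: plate cells (96-well), add compound at 5 concentrations, incubate 48 h, interpolate endpoints linearly. GI50 marks 50% less growth. TGI marks complete inhibition of growth.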

Assays:
Experiment in all cases: NCI-60 cell line screen, 48 h
[1] = system: 786-0 renal
[2] = system: A498 renal
[3] = system: A549 NSCLC
[4] = system: ACHN renal
[5] = system: BT-549 breast
[6] = system: CAKI-1 renal
[7] = system: CCRF-CEM leukemia
[8] = system: DU-145 prostate
[9] = system: EKVX NSCLC
[10] = system: HCC-2998 colon
[11] = system: HCT-15 colon
[12] = system: HL-60(TB) leukemia
[13] = system: HOP-62 NSCLC
[14] = system: HOP-92 NSCLC
[15] = system: HS 578T breast
[16] = system: HT29 colon
[17] = system: IGROV1 ovarian
[18] = system: K-562 leukemia
[19] = system: KM12 colon
[20] = system: LOX IMVI melanoma
[21] = system: M14 melanoma
[22] = system: MALME-3M melanoma
[23] = system: MCF7 breast
[24] = system: MDA-MB-231 breast
[25] = system: MDA-MB-435
[26] = system: MDA-MB-468 breast
[27] = system: MOLT-4 leukemia
[28] = system: NCI-H226 lung
[29] = system: NCI-H23 lung
[30] = system: NCI-H522 lung
[31] = system: NCI/ADR-RES ovarian
[32] = system: OVCAR-3 ovarian
[33] = system: OVCAR-4 ovarian
[34] = system: OVCAR-5 ovarian
[35] = system: OVCAR-8 ovarian
[36] = system: PC-3 prostate
[37] = system: RPMI-8226 leukemia
[38] = system: RXF 393 renal
[39] = system: SF-268 CNS
[40] = system: SF-295 CNS
[41] = system: SF-539 CNS
[42] = system: SK-MEL-2 melanoma
[43] = system: SK-MEL-28 melanoma
[44] = system: SK-MEL-5 melanoma
[45] = system: SK-OV-3 ovarian
[46] = system: SNB-19 CNS
[47] = system: SNB-75 CNS
[48] = system: SW-620 colon
[49] = system: T-47D breast
[50] = system: TK-10 renal
[51] = system: UACC-257 melanoma
[52] = system: UACC-62 melanoma
[53] = system: UO-31 renal

Q: With `CN1CCCN(Cc2ccc(C(=O)Nc3cccc(Nc4ccc5c(O)cccc5n4)c3)cc2C(F)(F)F)CC1` as the molecule, how does the GI50 [1] read?
A: 2.06 µM

Q: And the TGI [1]?
A: 3.8 µM

Q: What about the GI50 [2] of the same molecule?
A: 15.3 µM

Q: And the TGI [2]?
A: 29 µM

Q: What about the GI50 [3] of the same molecule?
A: 3.63 µM

Q: What about the TGI [3] of the same molecule?
A: 15.1 µM

Q: What about the GI50 [4] of the same molecule?
A: 1.92 µM

Q: What about the TGI [4] of the same molecule?
A: 3.74 µM

Q: What about the GI50 [5] of the same molecule?
A: 1.8 µM

Q: What about the TGI [5] of the same molecule?
A: 3.28 µM

Q: And the GI50 [6]?
A: 1.8 µM

Q: What about the TGI [6] of the same molecule?
A: 3.94 µM

Q: What about the GI50 [7] of the same molecule?
A: 2.07 µM

Q: And the TGI [7]?
A: > 100 µM

Q: What about the GI50 [8] of the same molecule?
A: 3.27 µM

Q: And the TGI [8]?
A: 10.1 µM

Q: What about the GI50 [9] of the same molecule?
A: 1.82 µM

Q: And the TGI [9]?
A: 3.5 µM

Q: What about the GI50 [10] of the same molecule?
A: 1.8 µM

Q: What about the TGI [10] of the same molecule?
A: 3.19 µM

Q: And the GI50 [11]?
A: 1.93 µM

Q: And the TGI [11]?
A: 4.04 µM

Q: And the GI50 [12]?
A: 2.35 µM

Q: What about the TGI [12] of the same molecule?
A: 5.52 µM

Q: And the GI50 [13]?
A: 2.03 µM

Q: What about the TGI [13] of the same molecule?
A: 4.58 µM

Q: What about the GI50 [14] of the same molecule?
A: 1.64 µM

Q: What about the TGI [14] of the same molecule?
A: 4.41 µM

Q: What about the GI50 [15] of the same molecule?
A: 1.93 µM

Q: What about the TGI [15] of the same molecule?
A: 4.85 µM

Q: And the GI50 [16]?
A: 1.92 µM

Q: What about the TGI [16] of the same molecule?
A: 3.76 µM

Q: And the GI50 [17]?
A: 2.56 µM

Q: What about the TGI [17] of the same molecule?
A: 6.88 µM

Q: And the GI50 [18]?
A: 2.18 µM

Q: What about the TGI [18] of the same molecule?
A: > 100 µM

Q: What about the GI50 [19] of the same molecule?
A: 1.98 µM

Q: What about the TGI [19] of the same molecule?
A: 3.99 µM

Q: What about the GI50 [20] of the same molecule?
A: 1.63 µM

Q: What about the TGI [20] of the same molecule?
A: 2.99 µM

Q: What about the GI50 [21] of the same molecule?
A: 1.89 µM

Q: And the TGI [21]?
A: 4.49 µM

Q: What about the GI50 [22] of the same molecule?
A: 1.7 µM

Q: What about the TGI [22] of the same molecule?
A: 3.14 µM

Q: And the GI50 [23]?
A: 1.68 µM

Q: And the TGI [23]?
A: 3.2 µM

Q: And the GI50 [24]?
A: 1.65 µM

Q: What about the TGI [24] of the same molecule?
A: 3.18 µM

Q: What about the GI50 [25] of the same molecule?
A: 1.78 µM

Q: What about the TGI [25] of the same molecule?
A: 3.6 µM

Q: What about the GI50 [26] of the same molecule?
A: 1.66 µM

Q: What about the TGI [26] of the same molecule?
A: 3.13 µM

Q: And the GI50 [27]?
A: 2.11 µM

Q: And the TGI [27]?
A: 6.94 µM

Q: And the GI50 [28]?
A: 16.7 µM

Q: And the TGI [28]?
A: 46.8 µM

Q: And the GI50 [29]?
A: 1.78 µM

Q: What about the TGI [29] of the same molecule?
A: 3.31 µM

Q: What about the GI50 [30] of the same molecule?
A: 1.84 µM

Q: What about the TGI [30] of the same molecule?
A: 3.51 µM

Q: What about the GI50 [31] of the same molecule?
A: 6.43 µM

Q: What about the TGI [31] of the same molecule?
A: 68.5 µM

Q: What about the GI50 [32] of the same molecule?
A: 1.97 µM

Q: And the TGI [32]?
A: 4.41 µM

Q: What about the GI50 [33] of the same molecule?
A: 3.83 µM

Q: What about the TGI [33] of the same molecule?
A: 15.4 µM

Q: What about the GI50 [34] of the same molecule?
A: 11.4 µM

Q: And the TGI [34]?
A: 23.9 µM

Q: And the GI50 [35]?
A: 2.51 µM

Q: What about the TGI [35] of the same molecule?
A: 6.22 µM

Q: What about the GI50 [36] of the same molecule?
A: 1.87 µM

Q: What about the TGI [36] of the same molecule?
A: 5.73 µM

Q: What about the GI50 [37] of the same molecule?
A: 2.89 µM

Q: And the TGI [37]?
A: 9.36 µM

Q: What about the GI50 [38] of the same molecule?
A: 1.85 µM

Q: And the TGI [38]?
A: 3.71 µM

Q: And the GI50 [39]?
A: 2.14 µM

Q: And the TGI [39]?
A: 5.24 µM

Q: What about the GI50 [40] of the same molecule?
A: 1.67 µM

Q: And the TGI [40]?
A: 3.07 µM

Q: What about the GI50 [41] of the same molecule?
A: 1.7 µM

Q: What about the TGI [41] of the same molecule?
A: 3.12 µM

Q: What about the GI50 [42] of the same molecule?
A: 1.81 µM

Q: And the TGI [42]?
A: 3.46 µM

Q: What about the GI50 [43] of the same molecule?
A: 1.82 µM

Q: And the TGI [43]?
A: 3.27 µM

Q: What about the GI50 [44] of the same molecule?
A: 1.72 µM

Q: What about the TGI [44] of the same molecule?
A: 3.09 µM

Q: What about the GI50 [45] of the same molecule?
A: 11.1 µM

Q: And the TGI [45]?
A: 27.1 µM

Q: And the GI50 [46]?
A: 2.03 µM

Q: What about the TGI [46] of the same molecule?
A: 3.91 µM

Q: What about the GI50 [47] of the same molecule?
A: 1.32 µM

Q: And the TGI [47]?
A: 7.46 µM

Q: What about the GI50 [48] of the same molecule?
A: 1.95 µM

Q: What about the TGI [48] of the same molecule?
A: 3.44 µM

Q: And the GI50 [49]?
A: 3.46 µM

Q: What about the TGI [49] of the same molecule?
A: 13.3 µM

Q: What about the GI50 [50] of the same molecule?
A: 2.8 µM

Q: And the TGI [50]?
A: 8.95 µM

Q: And the GI50 [51]?
A: 1.6 µM

Q: What about the TGI [51] of the same molecule?
A: 3.2 µM

Q: And the GI50 [52]?
A: 1.69 µM

Q: What about the TGI [52] of the same molecule?
A: 3.13 µM

Q: What about the GI50 [53] of the same molecule?
A: 2.04 µM

Q: What about the TGI [53] of the same molecule?
A: 4.96 µM
